Where a SMILES comes first, the peptide text is derived from it. [ ]: non-standard residue; d: D form. The star is where a group is joined. Hyp = O=C(O)[C@@H]1C[C@@H](O)CN1; Tic = O=C(O)[C@@H]1Cc2ccccc2CN1; Phg = N[C@H](C(=O)O)c1ccccc1; NHOH = ON*
What was measured:
[1] = target: T1, Aminopeptidase N (Sus scrofa, UniProt P15145); test: Inhibition of pig kidney microsome aminopeptidase N using L-Leu-p-nitroanilide substrate
T1 sequence (P15145 whole entry): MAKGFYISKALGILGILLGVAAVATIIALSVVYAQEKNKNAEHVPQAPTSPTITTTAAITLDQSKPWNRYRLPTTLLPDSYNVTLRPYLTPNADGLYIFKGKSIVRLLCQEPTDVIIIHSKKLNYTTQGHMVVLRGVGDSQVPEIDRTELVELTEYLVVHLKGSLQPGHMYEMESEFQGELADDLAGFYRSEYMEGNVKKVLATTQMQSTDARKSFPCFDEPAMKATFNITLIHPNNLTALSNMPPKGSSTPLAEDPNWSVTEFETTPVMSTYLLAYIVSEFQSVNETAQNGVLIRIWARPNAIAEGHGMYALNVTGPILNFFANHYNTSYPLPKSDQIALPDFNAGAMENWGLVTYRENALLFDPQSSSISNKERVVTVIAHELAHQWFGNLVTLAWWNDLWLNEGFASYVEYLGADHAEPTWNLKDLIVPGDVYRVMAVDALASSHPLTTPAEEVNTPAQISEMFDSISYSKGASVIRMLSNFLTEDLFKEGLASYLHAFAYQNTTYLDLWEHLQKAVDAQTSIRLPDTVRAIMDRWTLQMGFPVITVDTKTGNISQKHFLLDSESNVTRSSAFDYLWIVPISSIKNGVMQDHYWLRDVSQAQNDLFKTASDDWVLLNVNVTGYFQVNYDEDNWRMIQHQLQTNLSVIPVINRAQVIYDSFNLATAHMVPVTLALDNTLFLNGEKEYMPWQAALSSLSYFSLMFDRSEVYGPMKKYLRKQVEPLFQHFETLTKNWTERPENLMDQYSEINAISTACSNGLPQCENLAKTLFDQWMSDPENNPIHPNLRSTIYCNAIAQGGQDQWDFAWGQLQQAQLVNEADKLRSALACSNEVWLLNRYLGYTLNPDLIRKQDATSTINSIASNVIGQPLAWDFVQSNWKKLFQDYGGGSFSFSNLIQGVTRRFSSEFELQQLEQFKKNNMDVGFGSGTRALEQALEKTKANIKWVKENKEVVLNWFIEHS

[2] = target: 72 kDa type IV collagenase (Homo sapiens, UniProt P08253); test: Inhibition of MMP2 after 30 mins
[3] = system: MDA-MB-231; test: Antiproliferative activity against human MDA-MB-231 cells after 48 hrs by MTT assay; assay type: functional, cell-based; conditions: MDA-MB-231, 48 h
[4] = target: Aminopeptidase N (Homo sapiens, UniProt P15144); test: Inhibition of aminopeptidase N in human ES2 cells assessed as L-Leu-p-nitroanilide hydrolysis; assay type: cell-based
[5] = cells; conditions: Homo sapiens, ES-2, 48 h
Description: Antiproliferative activity against human ES2 cells after 48 hrs by MTT assay

72 kDa type IV collagenase, sequence (P08253 whole entry): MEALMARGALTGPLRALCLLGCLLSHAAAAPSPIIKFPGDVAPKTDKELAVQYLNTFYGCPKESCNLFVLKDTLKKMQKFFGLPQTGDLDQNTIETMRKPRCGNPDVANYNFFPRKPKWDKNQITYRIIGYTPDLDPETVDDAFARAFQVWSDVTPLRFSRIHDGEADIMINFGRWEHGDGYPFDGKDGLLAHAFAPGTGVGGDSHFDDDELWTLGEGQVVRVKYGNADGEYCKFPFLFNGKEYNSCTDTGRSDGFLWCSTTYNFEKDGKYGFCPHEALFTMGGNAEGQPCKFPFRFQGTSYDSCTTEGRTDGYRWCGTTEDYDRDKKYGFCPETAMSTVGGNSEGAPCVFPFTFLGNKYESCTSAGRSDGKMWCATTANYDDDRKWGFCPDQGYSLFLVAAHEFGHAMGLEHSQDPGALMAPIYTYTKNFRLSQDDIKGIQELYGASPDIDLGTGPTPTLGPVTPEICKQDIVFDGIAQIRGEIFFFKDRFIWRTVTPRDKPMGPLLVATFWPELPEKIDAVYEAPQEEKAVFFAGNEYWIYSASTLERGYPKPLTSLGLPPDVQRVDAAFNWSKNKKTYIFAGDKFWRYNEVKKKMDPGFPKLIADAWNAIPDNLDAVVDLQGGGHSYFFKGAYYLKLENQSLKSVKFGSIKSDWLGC
Aminopeptidase N (Homo sapiens, UniProt P15144), sequence (P15144 whole entry): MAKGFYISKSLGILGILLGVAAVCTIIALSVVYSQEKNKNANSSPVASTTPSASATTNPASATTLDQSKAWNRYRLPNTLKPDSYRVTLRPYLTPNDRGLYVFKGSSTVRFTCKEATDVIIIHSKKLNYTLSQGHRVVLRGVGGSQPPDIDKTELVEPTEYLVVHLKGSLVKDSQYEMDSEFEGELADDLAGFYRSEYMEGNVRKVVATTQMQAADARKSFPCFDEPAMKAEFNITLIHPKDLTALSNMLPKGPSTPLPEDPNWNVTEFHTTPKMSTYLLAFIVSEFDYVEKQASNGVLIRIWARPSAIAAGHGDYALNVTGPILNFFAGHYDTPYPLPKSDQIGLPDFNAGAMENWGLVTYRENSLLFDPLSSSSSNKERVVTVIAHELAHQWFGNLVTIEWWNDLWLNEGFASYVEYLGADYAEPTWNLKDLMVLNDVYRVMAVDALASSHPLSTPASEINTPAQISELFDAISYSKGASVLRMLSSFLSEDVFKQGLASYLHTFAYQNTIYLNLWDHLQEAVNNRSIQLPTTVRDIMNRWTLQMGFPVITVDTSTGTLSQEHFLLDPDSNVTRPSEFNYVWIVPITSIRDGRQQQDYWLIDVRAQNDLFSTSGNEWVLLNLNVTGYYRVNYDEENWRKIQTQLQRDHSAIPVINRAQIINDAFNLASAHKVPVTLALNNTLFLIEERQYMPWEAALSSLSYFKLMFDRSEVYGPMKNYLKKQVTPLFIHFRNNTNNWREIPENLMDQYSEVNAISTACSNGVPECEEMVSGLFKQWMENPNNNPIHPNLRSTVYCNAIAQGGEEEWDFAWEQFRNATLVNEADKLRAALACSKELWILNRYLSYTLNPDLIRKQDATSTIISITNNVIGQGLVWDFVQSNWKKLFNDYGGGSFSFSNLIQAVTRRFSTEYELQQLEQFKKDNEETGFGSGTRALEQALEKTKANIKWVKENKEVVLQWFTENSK

Row | IC50 ([1]; read-out: IC50) [µM] | IC50 ([2]; read-out: IC50) [µM] | Structure (SMILES) | also measured
1 | 20.4 |  | Cl.O=C(CN1C(=O)CC[C@H](NC(=O)[C@@H]2Cc3ccccc3CN2)C1=O)NO | IC50 [2]: Not Active
2 | 37.1 | 517 | O=C(CCNC(=O)[C@@H]1Cc2ccccc2CN1)NO | 
3 | 44.5 | 252 | O=C(CCCNC(=O)[C@@H]1Cc2ccccc2CN1)NO | 
4 | 43.4 |  | Cl.O=C(N[C@@H](Cc1cc2ccccc2[nH]1)C(=O)NO)[C@@H]1Cc2ccccc2CN1 | IC50 [2]: Not Active
5 | 83.8 | 463 | C[C@H](NC(=O)[C@@H]1Cc2ccccc2CN1)C(=O)NO (H-[Tic]-Ala-{NHOH}) | 
6 | 21.7 | 249 | O=C(CNC(=O)[C@@H]1Cc2ccccc2CN1)NO (H-[Tic]-Gly-{NHOH}) | 
7 |  | 672 | CC[C@H](C)[C@H](NC(=O)[C@@H]1Cc2ccccc2CN1)C(=O)NO.Cl (H-[Tic]-Ile-{NHOH}) | IC50 [1]: Not Active
8 | 481 |  | CC(C)C[C@H](NC(=O)[C@H](CC(C)C)NC(=O)[C@@H]1Cc2ccccc2CN1)C(=O)NO.Cl (H-[Tic]-Leu-Leu-{NHOH}) | IC50 [2]: Not Active
9 | 465 | 657 | CC(C)C[C@H](NC(=O)[C@@H]1Cc2ccccc2CN1)C(=O)N[C@@H](Cc1ccccc1)C(=O)NO (H-[Tic]-Leu-Phe-{NHOH}) | 
10 | 27.5 | 836 | CC(C)C[C@H](NC(=O)[C@@H]1Cc2ccccc2CN1)C(=O)NO (H-[Tic]-Leu-{NHOH}) | 
11 | 8.77 | 166 | CSCC[C@H](NC(=O)[C@@H]1Cc2ccccc2CN1)C(=O)NO (H-[Tic]-Met-{NHOH}) | 
12 | 555 |  | CC(C)C[C@H](NC(=O)[C@H](Cc1ccccc1)NC(=O)[C@@H]1Cc2ccccc2CN1)C(=O)NO.Cl (H-[Tic]-Phe-Leu-{NHOH}) | IC50 [2]: Not Active
13 | 435 |  | Cl.O=C(N[C@@H](Cc1ccccc1)C(=O)N[C@@H](Cc1ccccc1)C(=O)NO)[C@@H]1Cc2ccccc2CN1 (H-[Tic]-Phe-Phe-{NHOH}) | IC50 [2]: Not Active
14 | 12.8 | 940 | O=C(N[C@@H](Cc1ccccc1)C(=O)NO)[C@@H]1Cc2ccccc2CN1 (H-[Tic]-Phe-{NHOH}) | 
15 | 104 | 157 | O=C(NO)[C@@H]1CCCN1C(=O)[C@@H]1Cc2ccccc2CN1 (H-[Tic]-Pro-{NHOH}) | 
16 | 40.2 | 268 | O=C(N[C@@H](CO)C(=O)NO)[C@@H]1Cc2ccccc2CN1 (H-[Tic]-Ser-{NHOH}) | 
17 | 46.6 | 201 | C[C@@H](O)[C@H](NC(=O)[C@@H]1Cc2ccccc2CN1)C(=O)NO (H-[Tic]-Thr-{NHOH}) | 
18 | 9.39 | 540 | O=C(N[C@@H](Cc1ccc(O)cc1)C(=O)NO)[C@@H]1Cc2ccccc2CN1 (H-[Tic]-Tyr-{NHOH}) | 
19 | 36.6 | 307 | CC(C)[C@H](NC(=O)[C@@H]1Cc2ccccc2CN1)C(=O)NO (H-[Tic]-Val-{NHOH}) | 
20 |  | 276 | Cl.O=C(NO)[C@@H]1C[C@@H](O)CN1C(=O)[C@@H]1Cc2ccccc2CN1 (H-[Tic]-[Hyp]-{NHOH}) | IC50 [1]: Not Active
21 | 6.28 | 393 | O=C(N[C@H](C(=O)NO)c1ccccc1)[C@@H]1Cc2ccccc2CN1 (H-[Tic]-[Phg]-{NHOH}) | IC50 [3]: 591 µM; IC50 [4]: 32.7 µM; inhibition [4]: Dose-dependent effect; IC50 [5]: 174 µM
22 |  |  | CC(C)C[C@H](NC(=O)[C@@H](O)[C@H](N)Cc1ccccc1)C(=O)O [UBENIMEX] | IC50 [3]: 753 µM; IC50 [5]: 142 µM
